Measured values published in patent publication US9005678B1, “Pharmaceutical composition for treating cancer and use thereof” (Jiangsu Province Institute of Traditional Chinese Medicine, priority 2013, dated 2015).

Legend:
[1] = Body weight of CIPN rats (oxaliplatin-induced peripheral neuropathy model); type: in vivo, rat; conditions: oxaliplatin 4 mg/kg i.p. twice per week; after 7 days of modeling
Description: (§1) Animals were housed 3 per cage in a temperature- and humidity-controlled environment under a 12/12-h light/dark cycle. Food and water were freely available. All experimental procedures were approved by the Animal Experimental committee of Jiangsu Province Academy of Traditional Chinese Medicine. All efforts were made to minimize the number of animals used and their suffering.
(§2) (1) Animal Grouping: the rats were randomly divided into five groups by using randomized grouping method (N=10 rats/group):
(§3) Group 1: saline (control group)
(§4) (2) Modeling and Administration: The first day of drug treatment was referred to as d1. […] After the last administration, the rats were sacrificed. Spinal cord and L5 dorsal root ganglia were harvested from all experimental animals, and taken to make tissue sections, which were stained with Nissl staining to observe the extent of damage in neurons. The expressions of pain-related TRP ion channel proteins, TRPMS, TRPV1, and TRPA1mRNA, in dorsal root ganglion tissue were determined by qPCR assay. (4) Von Frey test for mechanical allodynia: According to the method described by Chaplan et al^[22], the mechanical allodynia was assessed by von Frey test. Rats were placed in a clear plastic box (22×12×22 cm) with a wire mesh floor and allowed to habituate for 15 min prior to testing. […] 3.

CIPN rats = assay: Von Frey test for mechanical allodynia in CIPN rats; type: in vivo, rat; conditions: oxaliplatin 4 mg/kg i.p.; 14 days after the experiment; P<0.05
Description: as §1, §2, §3, §4

DRG neurons = assay: Nissl staining of L5 dorsal root ganglia sections of CIPN rats; type: in vivo, rat; conditions: oxaliplatin 4 mg/kg i.p.
Protocol: as §4

TRPM8 mRNA = TRPM8 mRNA expression in DRG by real-time PCR; type: in vivo, rat; conditions: L4-L6 DRG; oxaliplatin model group; P<0.01
Protocol: as §4, with “Withdrawal responses to the stimulation of von Frey filaments were recorded and paw withdrawal thresholds were determined by a modified up-down method. Each von Frey filament with equivalent force was measured for five times, and the time interval between simulations was 30 seconds, 3 or more times of positive reactions out of 5 simulations was deemed to be mechanical allodynia. […]” for “3.”
(§5) To elucidate the mechanism of the preventive effect of AC591 on oxaliplatin-induced peripheral neuropathy, we determined the expression of TRPM8, TRPV1 and TRPA1 mRNA in L4-L6 DRG using real-time PCR.

TRPV1 mRNA = TRPV1 mRNA expression in DRG by real-time PCR; type: in vivo, rat; conditions: L4-L6 DRG; oxaliplatin model group; P<0.01
Protocol: as §4, with “Withdrawal responses to the stimulation of von Frey filaments were recorded and paw withdrawal thresholds were determined by a modified up-down method. Each von Frey filament with equivalent force was measured for five times, and the time interval between simulations was 30 seconds, 3 or more times of positive reactions out of 5 simulations was deemed to be mechanical allodynia. […]” for “3.”
as §5

TRPA1 mRNA = TRPA1 mRNA expression in DRG by real-time PCR; type: in vivo, rat; conditions: L4-L6 DRG; oxaliplatin model group; P<0.01
Protocol: as §4, with “Withdrawal responses to the stimulation of von Frey filaments were recorded and paw withdrawal thresholds were determined by a modified up-down method. Each von Frey filament with equivalent force was measured for five times, and the time interval between simulations was 30 seconds, 3 or more times of positive reactions out of 5 simulations was deemed to be mechanical allodynia. […]” for “3.”
as §5

[2] = tested on: CT26 murine colorectal cancer cells; assay: Colorectal cancer subcutaneous xenograft, tumor volume; type: in vivo, Balb/c mice; conditions: oxaliplatin 5 mg/kg i.p.; days 4 and 7; P<0.05
Protocol: Experimental Animals and Cell Lines: Six-week-old Balb/c mice weighing (16±2) g, bisexual each half, were purchased from Shanghai Slac Laboratory Animal Center and kept in SPF Laboratory Animal Room in Institute of Chinese Medicine and Pharmacy of Jiangsu Province. CT26 murine colorectal cancer cells were obtained from molecular biology laboratory of Institute of Chinese Medicine and Pharmacy of Jiangsu Province.
CT26 cells were cultured in Dulbecco's Modified Eagle Medium with 2.0 g/1 sodium bicarbonate plus 10% fetal bovine serum, 1% L-glutamine, 100 U/ml penicillin and 100 U/ml streptomycin. When the cells were approximately 80% confluent, the culture medium was discarded and washed with PBS. Trypsin was then introduced to perform digestion. When the connection between cells appeared loose, the trypsin was discarded, and cell culture medium was introduced to terminate the digestion. Cells were repeatedly and gently pipetted with a pipette so as to be taken off the wall to form cell suspension. It was collected into centrifuge tubes and centrifuged. The concentration of cell suspension was adjusted to 1×10^6/0.2 ml with 0.9% sterile saline. […]
Tumor volume and body weight were recorded every 3 days, and the tumor volume was calculated using the formula: tumor volume (mm^3)=length (mm)×width (mm)^2/2. […]

[3] = cumulative dose of 1170 mg/m^2; cited from earlier work

O=C1[O][Pt]2([NH][C@@H]3CCCC[C@H]3[NH]2)[O]C1=O [oxaliplatin]
body weight of rats in model group versus control group [1]: significantly lower | mechanical paw-withdrawing threshold, model group compared with control group (CIPN rats): significantly decreased | DRG neuron morphology in model group (DRG neurons): part of cell bodies and nuclei of neurons greatly shrinked | expression of TRPM8 mRNA, increase in model group compared with control group (TRPM8 mRNA): 2-4 fold | expression of TRPV1 mRNA, increase in model group compared with control group (TRPV1 mRNA): 2-4 fold | expression of TRPA1 mRNA, increase in model group compared with control group (TRPA1 mRNA): 2-4 fold | tumour volumes compared with vehicle [2]: significantly inhibited the increase of tumour volumes | risk of neurotoxicity [3]: 50%
